Source: patent US6352715B1, “Transdermal rate-controlled delivery of Huperzine A for treatment of alzheimer's disease” (priority 1998, dated 2002)

How the values were obtained:
[1] = Determination of pKa of Hup A by pH titration; assay type: physicochemical; conditions: 5×10^−4 M in water titrated with HCl
Experimental: A solution of the Hup A was prepared in water to obtain a concentration of 5×10^−4 M solution. Hydrochloric acid solution 0.005M was prepared by dilution of concentrated acid. Similarly, a NaOH solution was prepared by diluting commercially available 1N solution.
For all titration, the procedure used was similar and is described below. The solution to be titrated was taken in a breaker and continually mixed using a magnetic stir bar. A pH electrode was used to measure pH of the solution during the experiments. The pH meter was connected to a computer, which was programmed to automatically obtain pH readings every 10 seconds. […]
First, the HCL solution was standardized by titrating it with standard NaOH solution. This was carried out three times an d end point was determined from the inflection point using the titration profile. […]
The pH titration curve consists of […]: initial gradual decrease in pH as the base is slowly neutralized by the acid; middle region showing slow decrease in pH as excess acid is added to the solution. The pKa of the base is calculated from the initial region. The pH corresponding to midpoint of the initial part of the curve is the approximate pKa of the Hup A. Further, the exact pKa of Hup A was calculated by method described by Albert and Sergeant (1971), which is incorporated herein by reference. […]

[2] = pH/solubility profile in buffers; assay type: physicochemical; conditions: 37° C., 24 hours
Experimental: In order to conserve the drug quantity being used, single point solubility determinations were carried out. Six different buffers were prepared in to determine the solubility of Hup A. The pH range chosen to study solubility is in 2 units above and 2 units below the pKa of the drug, i.e., 5 to 9. In addition, pH 7.4 was also selected to determine solubility at the physiological pH. To determine solubility, weighed amounts of Hup A were added to six different glass vials. In each vial, 1 ml of the respective buffer was added. The vials were tightly closed and kept in a shaking water bath maintained at 37° C. for 24 hours. At the end of such period, the supernatant solution was filtered through 0.22 um nylon filters into pre-warmed tubes. An aliquot of the filtrate was further diluted and analyzed by HPLC.
It can be seen that at pH 2 units above the pKa, i.e., at pH 9, the solubility of Hup A is the lowest. At low pH, i.e., at pH 5, the solubility of Hup A is seen to be high. This is expected as at pH 5, the drug predominantly exists as an ionized moiety with a single positive charge. These charged ions are hydrophilic and can be easily solubilized by water. At pH 9, the drug predominantly exists as an neutral moiety which is lipophilic, thus the solubility is low. The log of solubility as a function of solution pH is explained by the Henderson-Hasselback equation: […]

[3] = Partitioning of Hup A into n-octanol from buffers of different pH; assay type: physicochemical; conditions: 48 hrs
Experimental: The buffers used to prepare solutions of Hup A for the partitioning study were the same as those used in the solubility studies, i.e., isotonic phosphate buffers with pH 5, 6, 7, 7.4, 8 and 9. Initially, 100 ml of n-octanol was mixed with 100 ml of phosphate buffers and placed in shaking water bath at 37° C. for 24 hours to saturate the n-octanol with buffer prior to study. Then the n-octanol was separated from the buffer using a separating funnel.
Solutions of Hup A (about 150 ug/ml concentration) were prepared separately in each of the six buffers. Then 1 ml each of each buffers was pipetted to three test tube. To these test tubes, 1 ml of the n-octanol was added. Controls were set up consisting only of buffer solutions without n-octanol to account for changes in concentration due to evaporation of buffer or degradation of drug if present. The tubes were sealed and placed in a shaking water bath at 37° C. for 48 hrs. Samples of 100 ul each were taken from both the n-octanol layer and the buffer layer and analyzed by HPLC. Partition coefficients were determined from the ratio of concentration of Hup A in n-octanol to that in buffer.
It appears that at high pH, when Hup A exists predominantly as a neutral moiety, the partition coefficient is high. As the pH is reduced the fraction of the unionized moiety decreases and so does the partition coefficient. At pH 5, when Hup A exists predominantly as a ionized moiety the partition coefficient is below 1, indicating high affinity of the drug for the buffer phase.

[4] = In vitro permeation of Hup A through human cadaver skin from donor solutions (Valia-Chien permeation cell); assay type: in vitro ADME; conditions: for Permeation arate: receptor pH 7.4; for Permeability × 10^3: values × 10^3
Experimental: Human cadaver skin is employed as model for studying in vitro transdermal permeation of Hup A. The skin specimens of human cadavers, obtained from Ohio Valley Skin & Tissue Center, are mounted between the two half cells of Valia-Chien Permeation Cell. Donor solutions were prepared in isotonic phosphate buffers of pH 5, 6, 7, 7.4, 8 and 9. Concentration of each solution was about 750 ug/ml. Permeation studies were carried out in triplicate at each pH evaluated. The receptor solution used in each case was isotonic phosphate buffer pH 7.4 to simulate physiological conditions.
As stated above human cadaver skin was used in the permeation studies. The skin, obtained frozen, was first thawed and rinsed with in normal saline. The skin was then blotted to remove excess moisture and cut into 2 cm×2 cm pieces. Each skin piece was sandwiched between two microscope glass slides and the thickness was measured using a micrometer. These skin pieces were then mounted between the two half-cell of Valia-Chien permeation cells, with the stratum corneum facing the donor half-cell. The respective donor and receptor solutions were added (3.3 ml each). Samples of 100 ul each were taken from the receptor compartment at various intervals up to 48 hours and were analyzed by HPLC. The volume of receptor compartment was replaced with fresh isotonic phosphate buffer after each sample. At end of 48 hours, a single aliquot was taken from the donor compartment and analyzed after suitable dilution to evaluate the amount of Hup A lost from the donor in 48 hours.
The rate of Hup A permeation is determined based on the general formula for the determination of the rate of permeation of a drug across a membrane as illustrated by the following equation (1): [formula]
Sink conditions were maintained throughout the permeation study i.e. Cd>>Cr. Permeability can be calculated using solubility of Hup A as the saturation concentration in donor cell (Cd). [formula]
Intrinsic permeability was calculated by correlating the permeability with the thickness of the skin:
Wherein P=intrinsic permeability and h=thickness in cm.
Generally speaking, higher the partitioning of the drug into the skin, higher the permeation will be. The pH-dependent partitioning behavior of Hup A is seen to be reflected in its skin permeation profiles. The intrinsic permeability-pH profiles of Hup A (FIG. 5) is similar to that observed for partition coefficient-pH relationship (FIG. 3). Again, a sigmoidal relationship is observed. Further, the amount lost from the donor solution, which corresponds to the sum of the amount permeated and the amount retained in the skin, was also seen to follow similar relationship (FIG. 6).

rat cortex = conditions: cited from earlier work
[5] = system: rat embryo hippocampus and cerebellum cultured cells; conditions: cited from earlier work
[6] = single oral dose of 0.99 mg, six volunteers; cited from earlier work
patients = conditions: orally 0.2 mg (4 tablets, b.i.d) for 8 weeks; cited from earlier work

C/C=C1\[C@H]2C=C(C)C[C@]1(N)c1ccc(=O)[nH]c1C2 [Hup A, Huperzine A]
pKa [1]: 6.97 (+/−0.06) | Solubility ([2]; pH 5 buffer): 6.225 (0.153) mg/ml | Solubility ([2]; pH 6 buffer): 4.639 (0.001) mg/ml | Solubility ([2]; pH 7 buffer): 2.123 (0.042) mg/ml | Solubility ([2]; pH 7.4 buffer): 1.325 (0.042) mg/ml | Solubility ([2]; pH 8 buffer): 1.201 (0.017) mg/ml | Solubility ([2]; pH 9 buffer): 1.044 (0.018) mg/ml | Partition Coefficient ([3]; n-octanol/buffer pH 6, 37° C.): 1.681 (0.010) | Partition Coefficient ([3]; n-octanol/buffer pH 7, 37° C.): 11.376 (0.415) | Partition Coefficient ([3]; n-octanol/buffer pH 7.4, 37° C.): 18.359 (0.294) | Partition Coefficient ([3]; n-octanol/buffer pH 8, 37° C.): 24.063 (0.515) | Partition Coefficient ([3]; n-octanol/buffer pH 9, 37° C.): 27.463 (0.131) | Permeation arate ([4]; donor pH 5, about 750 ug/ml): 0.776 (0.029) ug/cm^2/hr | Permeability × 10^3 ([4]; donor pH 5): 1.026 (0.038) cm/hr | Permeation arate ([4]; donor pH 6, about 750 ug/ml): 0.213 (0.088) ug/cm^2/hr | Permeability × 10^3 ([4]; donor pH 6): 0.290 (0.119) cm/hr | Permeation arate ([4]; donor pH 7, about 750 ug/ml): 0.633 (0.225) ug/cm^2/hr | Permeability × 10^3 ([4]; donor pH 7): 0.846 (0.300) cm/hr | Permeation arate ([4]; donor pH 7.4, about 750 ug/ml): 0.759 (0.368) ug/cm^2/hr | Permeability × 10^3 ([4]; donor pH 7.4): 1.007 (0.489) cm/hr | Permeability × 10^3 ([4]; donor pH 8): 4.434 (1.7050) cm/hr | Permeation arate ([4]; donor pH 9, about 750 ug/ml): 5.082 (2.162) ug/cm^2/hr | Permeability × 10^3 ([4]; donor pH 9): 6.118 (2.603) cm/hr | permeation through the blood-brain barrier (rat cortex; rat, in vivo): able to permeate through the blood-brain barrier | Ach, norepinephrine and dopamine in rat cortex (rat cortex; systemic or local administration): dose-dependent increase | death of neuronal cell caused by toxic levels of glutamate [5]: decreases the death of neuronal cell | pharmaco-kinetics evaluation [6]: absorbed rapidly, distributed widely in the body, and eliminated at a moderate rate | patients with significant improvement in memory, cognition and behavior (patients): 58% | side effects (patients): without causing any severe side effects
